Where a SMILES comes first, the peptide text is derived from it. Bridges are numbered along the chain shown (N, C = ends). [ ]: non-standard residue; d: D form. The star is where a group is joined. d(aThr) = C[C@@H](O)[C@@H](N)C(=O)O; Hexanoyl(5-Me) = CC(C)CCCC(=O)*; dCha = N[C@H](CC1CCCCC1)C(=O)O; Orn = NCCC[C@H](N)C(=O)O; Dhb = C/C=C(\N)C(=O)O
Legend:
Type in all cases: cell-based, human
IGROV-ET = assay: SRB colorimetric assay of cell growth and viability, IGROV-ET; details: 48 hours exposure; for CC50: read-out: LC50 IGROV-ET
A-549 = assay: SRB colorimetric assay of cell growth and viability, A-549; details: 48 hours exposure; for GI50: read-out: GI50 A-549; for CC50: read-out: LC50 A-549
HeLa = assay: SRB colorimetric assay of cell growth and viability, HeLa; details: 48 hours exposure; for CC50: read-out: LC50 HELA
SK-MEL-28 = assay: SRB colorimetric assay of cell growth and viability, SK-MEL-28; details: 48 hours exposure; for CC50: read-out: LC50 MEL-28
K-562 = assay: SRB colorimetric assay of cell growth and viability, K-562; details: 48 hours exposure; for CC50: read-out: LC50 K-562
SK-BR-3 = assay: SRB colorimetric assay of cell growth and viability, SK-BR-3; details: 48 hours exposure
DU-145 = assay: SRB colorimetric assay of cell growth and viability, DU-145; details: 48 hours exposure
HT-29 = assay: SRB colorimetric assay of cell growth and viability, HT-29; details: 48 hours exposure; for GI50: read-out: GI50 HT-29; for CC50: read-out: LC50 HT-29
LoVo-Dox = assay: SRB colorimetric assay of cell growth and viability, LoVo-Dox; details: 48 hours exposure; for CC50: read-out: LC50 LOVO-DOX
Method in brief: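 Absorbance at 490 nm of Tris-solubilized sulforhodamine B gives the read-out after cells are fixed with cold 50% TCA for 60 min at 4° C. Compound exposure lasts 48 hours over 10 to 10^−8 μg/mL. Growth inhibition, total growth inhibition and lethal concentration are calculated from triplicate wells.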

PANC-1 = assay: SRB colorimetric assay of cell growth and viability, PANC-1; details: 48 hours exposure; for CC50: read-out: LC50 PANC-1
IGROV-1 = assay: SRB colorimetric assay of cell growth and viability, IGROV-1; details: 48 hours exposure
LoVo = assay: SRB colorimetric assay of cell growth and viability, LoVo; details: 48 hours exposure; for CC50: read-out: LC50 LOVO
LNCaP = assay: SRB colorimetric assay of cell growth and viability, LNCaP; details: 48 hours exposure; for GI50: read-out: GI50 LN-caP; for CC50: read-out: LC50 LN-caP
HeLa-APL = assay: SRB colorimetric assay of cell growth and viability, HeLa-APL; details: 48 hours exposure; for CC50: read-out: LC50 HELA-APL

## C/C=C1\NC(=O)[C@H](Cc2ccccc2)NC(=O)[C@@H](CC2CCCCC2)NC(=O)[C@@H](CC2CCCCC2)NC(=O)[C@H](NC(=O)[C@@H](CC2CCCCC2)NC(=O)[C@H](CCCN)NC(=O)[C@H]2CCCN2C(=O)[C@H](NC(=O)[C@@H](NC(=O)[C@@H](NC(=O)[C@H](NC(=O)CCCC(C)C)C(C)C)[C@@H](C)O)C(C)C)C(C)C)[C@@H](C)OC(=O)[C@H](C(C)C)NC1=O [Compound 11, [D-Cha^4, D-Cha^5, D-Cha^7]-KF] ({Hexanoyl(5-Me)}-[dV]TV[dV][dP][Orn][dCha][d(aThr)][dCha][dCha]F[Dhb]V; ester 8-C)
IGROV-ET
  GI50: 133 nM
  TGI IGROV-ET: 3.03E−07 Molar
  CC50: 1290 nM
A-549
  TGI A-549: 2.60E−07 Molar
  GI50: 132 nM
  CC50: 511 nM
HeLa
  GI50: 223 nM
  TGI HELA: 8.93E−07 Molar
  CC50: 2550 nM
SK-MEL-28
  GI50: 455 nM
  TGI MEL-28: 1.28E−06 Molar
  CC50: 3030 nM
K-562
  GI50: 1580 nM
  TGI K-562: 2.56E−06 Molar
  CC50: 4140 nM
SK-BR-3
  GI50: 106 nM
  LC50: 599 nM
  TGI SK-BR-3: 2.52E−07 Molar
DU-145
  GI50: 220 nM
  LC50 (concentration causing 50% net cell kill): 2640 nM
  TGI DU-145: 8.56E−07 Molar
HT-29
  TGI HT-29: 1.91E−07 Molar
  GI50: 97.4 nM
  CC50: 377 nM
LoVo-Dox
  GI50: 81.9 nM
  TGI LOVO-DOX: 1.64E−07 Molar
  CC50: 326 nM
PANC-1
  GI50: 1430 nM
  TGI PANC-1: 2.74E−06 Molar
  CC50: 5250 nM
IGROV-1
  GI50: 190 nM
  LC50 (concentration causing 50% net cell killing): 2990 nM
  TGI IGROV: 5.67E−07 Molar
LoVo
  GI50: 97.4 nM
  TGI LOVO: 1.99E−07 Molar
  CC50: 406 nM
LNCaP
  TGI LN-caP: 1.40E−06 Molar
  GI50: 645 nM
  CC50: 3010 nM
HeLa-APL
  GI50: 211 nM
  TGI HELA-APL: 8.31E−07 Molar
  CC50: 2320 nM

## C/C=C1\NC(=O)[C@H](Cc2ccccc2)NC(=O)[C@@H](C(C)C)NC(=O)[C@@H](C(C)C)NC(=O)[C@H](NC(=O)[C@H](NC(=O)[C@H](CCCN)NC(=O)[C@H]2CCCN2C(=O)[C@H](NC(=O)[C@@H](NC(=O)[C@@H](NC(=O)[C@H](NC(=O)CCCC(C)C)C(C)C)[C@@H](C)O)C(C)C)C(C)C)C(C)C)[C@@H](C)OC(=O)[C@H](C(C)C)NC1=O [Compound 12, [D-Val^5, D-Val^7]-KF] ({Hexanoyl(5-Me)}-[dV]TV[dV][dP][Orn][dV][d(aThr)][dV][dV]F[Dhb]V; ester 8-C)
IGROV-ET
  GI50: 1790 nM
  TGI IGROV-ET: 2.97E−06 Molar
  CC50: 4930 nM
A-549
  TGI A-549: 6.68E−06 Molar
  GI50: 2170 nM
  CC50: 6900 nM
HeLa
  GI50: 1750 nM
  TGI HELA: 2.98E−06 Molar
  CC50: 5070 nM
SK-MEL-28
  GI50: 1680 nM
  TGI MEL-28: 3.12E−06 Molar
  CC50: 5780 nM
K-562
  GI50: 3190 nM
  TGI K-562: 5.46E−06 Molar
  CC50: 6900 nM
SK-BR-3
  GI50: 1740 nM
  LC50: 5380 nM
  TGI SK-BR-3: 3.06E−06 Molar
DU-145
  GI50: 1610 nM
  LC50 (concentration causing 50% net cell kill): 4920 nM
  TGI DU-145: 2.82E−06 Molar
HT-29
  TGI HT-29: 2.51E−06 Molar
  GI50: 1290 nM
  CC50: 4880 nM
LoVo-Dox
  GI50: 952 nM
  TGI LOVO-DOX: 1.97E−06 Molar
  CC50: 4080 nM
PANC-1
  GI50: 4670 nM
  TGI PANC-1: 6.90E−06 Molar
  CC50: 6900 nM
IGROV-1
  GI50: 1850 nM
  LC50 (concentration causing 50% net cell killing): 4930 nM
  TGI IGROV: 3.01E−06 Molar
LoVo
  GI50: 1260 nM
  TGI LOVO: 2.28E−06 Molar
  CC50: 4130 nM
LNCaP
  TGI LN-caP: 3.79E−08 Molar
  GI50: 2800 nM
  CC50: 5140 nM
HeLa-APL
  GI50: 3020 nM
  TGI HELA-APL: 6.01E−06 Molar
  CC50: 6900 nM

## C/C=C1\NC(=O)[C@H](Cc2ccccc2)NC(=O)[C@@H](C(C)C)NC(=O)[C@@H]([C@@H](C)CC)NC(=O)[C@H](NC(=O)[C@H](NC(=O)[C@H](CCCN)NC(=O)[C@H]2CCCN2C(=O)[C@H](NC(=O)[C@@H](NC(=O)[C@@H](NC(=O)[C@H](NC(=O)CCCCCCCCCC)C(C)C)[C@@H](C)O)C(C)C)C(C)C)[C@@H](C)CC)[C@@H](C)OC(=O)[C@H](C(C)C)NC1=O [Compound 15, [Und^14]-KF]
IGROV-ET
  GI50: 235 nM
  TGI IGROV-ET: 8.41E−07 Molar
  CC50: 3340 nM
A-549
  TGI A-549: 3.39E−07 Molar
  GI50: 143 nM
  CC50: 1690 nM
HeLa
  GI50: 120 nM
  TGI HELA: 2.65E−07 Molar
  CC50: 588 nM
SK-MEL-28
  GI50: 169 nM
  TGI MEL-28: 4.45E−07 Molar
  CC50: 2040 nM
K-562
  GI50: 1150 nM
  TGI K-562: 2.18E−06 Molar
  CC50: 4100 nM
SK-BR-3
  GI50: 26.7 nM
  LC50: 468 nM
  TGI SK-BR-3: 7.43E−08 Molar
DU-145
  GI50: 162 nM
  LC50 (concentration causing 50% net cell kill): 1040 nM
  TGI DU-145: 3.53E−07 Molar
HT-29
  TGI HT-29: 2.70E−07 Molar
  GI50: 127 nM
  CC50: 574 nM
LoVo-Dox
  GI50: 40.8 nM
  TGI LOVO-DOX: 1.65E−07 Molar
  CC50: 478 nM
PANC-1
  GI50: 1230 nM
  TGI PANC-1: 2.28E−06 Molar
  CC50: 4200 nM
IGROV-1
  GI50: 158 nM
  LC50 (concentration causing 50% net cell killing): 1540 nM
  TGI IGROV: 3.72E−07 Molar
LoVo
  GI50: 117 nM
  TGI LOVO: 2.67E−07 Molar
  CC50: 604 nM
LNCaP
  TGI LN-caP: 1.44E−06 Molar
  GI50: 529 nM
  CC50: 3480 nM
HeLa-APL
  GI50: 229 nM
  TGI HELA-APL: 8.47E−07 Molar
  CC50: 3550 nM

## C/C=C1\NC(=O)[C@H](Cc2ccccc2)NC(=O)[C@@H](C(C)C)NC(=O)[C@@H]([C@@H](C)CC)NC(=O)[C@H](NC(=O)[C@H](NC(=O)[C@H](CCCN)NC(=O)[C@H]2CCCN2C(=O)[C@H](NC(=O)[C@@H](NC(=O)[C@@H](NC(=O)[C@H](NC(=O)CC[C@H](C)CC)C(C)C)[C@@H](C)O)C(C)C)C(C)C)[C@@H](C)CC)[C@@H](C)OC(=O)[C@H](C(C)C)NC1=O [Compound 16, [(4R)-MeHex^14]-KF]
IGROV-ET
  GI50: 805 nM
  TGI IGROV-ET: 1.62E−06 Molar
  CC50: 3260 nM
A-549
  TGI A-549: 2.26E−06 Molar
  GI50: 1200 nM
  CC50: 4240 nM
HeLa
  GI50: 1050 nM
  TGI HELA: 1.93E−06 Molar
  CC50: 3550 nM
SK-MEL-28
  GI50: 1140 nM
  TGI MEL-28: 2.09E−06 Molar
  CC50: 3800 nM
K-562
  GI50: 3730 nM
  TGI K-562: 6.77E−06 Molar
  CC50: ≥ 6770 nM
SK-BR-3
  GI50: 1250 nM
  LC50: 3860 nM
  TGI SK-BR-3: 2.20E−06 Molar
DU-145
  GI50: 1200 nM
  LC50 (concentration causing 50% net cell kill): 3820 nM
  TGI DU-145: 2.14E−06 Molar
HT-29
  TGI HT-29: 1.54E−06 Molar
  GI50: 738 nM
  CC50: 3220 nM
LoVo-Dox
  GI50: 288 nM
  TGI LOVO-DOX: 7.71E−07 Molar
  CC50: 2190 nM
PANC-1
  GI50: 4700 nM
  TGI PANC-1: 4.24E−06 Molar
  CC50: 4240 nM
IGROV-1
  GI50: 941 nM
  LC50 (concentration causing 50% net cell killing): 3500 nM
  TGI IGROV: 1.81E−06 Molar
LoVo
  GI50: 248 nM
  TGI LOVO: 7.78E−07 Molar
  CC50: 2280 nM
LNCaP
  TGI LN-caP: 2.46E−06 Molar
  GI50: 1500 nM
  CC50: 4040 nM
HeLa-APL
  GI50: 1560 nM
  TGI HELA-APL: 3.47E−06 Molar
  CC50: ≥ 6770 nM
